Experimental data taken from patent publication US20040039211A1, “Tetrapyrroles” (DUKE UNIVERSITY AND NATIONAL JEWISH MEDICAL AND RESEARCH …, priority 2000, published 2004).
Read-outs that look alike come from different tables or passages of the source. Marks after values point to notes of the source that are not given here. Each block holds one molecule with its values, some of them ahead of it.

How the values were obtained:
[1] = Hydrolysis / dissociation of the complex in methanol/aqueous or water solution; type: physicochemical; settings: water
Procedure: Uv/vis Spectroscopy. […] Also the effects of EDTA, H2O2, and the methanol/water ratio on the stability of the manganese(III) complex were examined. […] […] 79:699 (1960)). When needed the biliverdin and biliverdin dimethylester as well as their reduced forms bilirubin and bilirubin dimethylester were studied. […] In a week, at 25° C., only 14% of the complex dissociated. When the water content was increased to 43%, half the complex dissociated in a week.

[2] = Ref 4, cited from earlier work
[3] = Mn(III)/Mn(II) couple; aqueous solution (pH 7.8, 0.1 M NaCl); Ref 4; cited from earlier work
[4] = Cyclic voltammetry, metal-centered redox potential; type: physicochemical; settings: Mn(III)/Mn(II) couple; for E1/2, V vs Ag/AgCl: 90/10 (v/v) methanol/aqueous solution, pH* 7.9
Procedure: Manganese(III) Salen. The compound was prepared by the published procedure (Boucher, J. lnorg. Nucl. Chem. 36:531 (1974)). The uv/vis in water: ε235=3.70×10^4 cm^−1 M^−1, ε279=1.70×10^4 cm^−1 M^−1, ε397=4.60×10^3 cm^−M^−1. The elemental analysis: Anal. Calcd for Mn^IIIsalenCl, C16H14N2O2MnCl: C, 53.88; H, 3.96; N; 7.85. Found: C, 54.02; H, 4.06; N, 7.85. […] Based on the E1/2 of Mn^IIITM-2-PyP^5+, ferrocenemethanol and of K3Fe(CN)6 in water and methanol, the redox potential of Mn^III salen^+ in water was calculated to be E1/2=−0.13 V vs NHE.
Electrochemistry of the Manganese(III) Biliverdin Dimethylester. Measurements were made using a CH Instruments model 600 voltammetric analyzer as described previously(Batinic-Haberle et al, Inorg. Chem. 38:4011 (1999)). A three-electrode system in a small volume (0.5-3.0 mL), with a 3 mm diameter glassy carbon button working electrode (Bioanalytical Systems), Ag/AgCl reference electrode (3 M NaCl, Bioanalytical Systems), and a Pt wire (0.5 mm) as auxiliary electrode, were used. The cyclic votammetry was performed on 0.5 mM (per manganese) methanol/aqueous (90/10, v/v) solutions of the compounds investigated. The ionic strength was kept at 0.10 M (NaCl), and 0.05 M tris buffer was used for pH^* adjustment. For calibration purposes, compounds of different hydrophilicities, […], (Kolthof et al, J. Phys. Chem. 39:945 (1935)) ferrocenemethanol and Mn^IIITM-2-PyP^5+ were studied in both aqueous and methanol/aqueous (90/10, v/v) solutions (I=0.10 M NaCl, 0.05 M tris buffer, pH^* 7.9). In all cases the measured E1/2 was 170 mV more positive in methanolic than in aqueous solution and this value was used to predict the redox potential in aqueous solution from measurement in methanol/aqueous solution.

[5] = tested on: SOD-deficient E. coli JI132; experiment: Aerobic growth of SOD-deficient E. coli in minimal medium; type: cell-based; settings: minimal (five amino acids) medium
Procedure: FIG. 13. […] The 20 mM ethanolic/albumin solution of compound was diluted into the medium. Also the growth of SOD-deficient E. coli was followed in the presence of 0.15% ethanol only (squares).
SOD activity can be monitored in the presence and absence of EDTA using the method of McCord and Fridovich (J. Biol. Chem. 244:6049 (1969)). The efficacy of a mimetic can also be determined by measuring the effect of the mimetic on the aerobic growth of a SOD null E. coli strain versus a parent strain. Specifically, parental E. coli (AB1157) and SOD null E. coli. […]
Effects on E. coli. E. coli strains AB1157 (SOD-proficient, wild type) and JI132 (SOD-deficient, sodAsodB) were obtained from J. A. Imlay (Imlay et al, J. Bacteriol. 169:2967 (1987)). […] Cultures were treated as previously described (Faulkner et al, J. Biol. Chem. 269:23471 (1994); Benov et al, J. Biol. Chem. 273:10313 (1998)). Due to the low water solubility, the compounds were solubilized with albumin in medium at a 1:1 molar ratio. Albumin itself had no effect on growth in the concentration range employed. Since methanol was toxic to the SOD-deficient strain of E. coli even when present in medium at 0.15%, the stock solutions of the compounds were prepared in ethanol.

[6] = pH* titration / protonation of the ligand; type: physicochemical; settings: 90/10 methanol/aqueous solution, 0.01 M tris and Pipes buffer
Procedure: Uv/vis Spectroscopy. […] Also the effects of EDTA, H2O2, and the methanol/water ratio on the stability of the manganese(III) complex were examined. […] Tris and Pipes buffers along with 1.0 M methanol/aqueous (90/10) solution of HCl were used for pH^* adjustments in methanol/aqueous solutions. The pH^* readings were measured on an Oakton pH-Meter equipped with a Denver Instruments combination glass electrode that was calibrated in methanol/water (90/10, v/v) buffer solutions: 10 mM oxalic acid/10 mM ammonium oxalate (pH^*=3.59) and 10 mM succinic acid/lithium hydrogen succinate (pH^*=6.55) (De Ligny et al. A. Rec. Trav. Chim. Pays-Bas 79:699 (1960)). When needed the biliverdin and biliverdin dimethylester as well as their reduced forms bilirubin and bilirubin dimethylester were studied.
Uv/Vis Spectroscopy. At pH^* 7.4 biliverdin dimethylester is in a fully deprotonated form, BVDME^3−. […] Carboxyl groups are separated from the main chromophores by two methylene groups, so that their ionization is not detectable spectrophotometrically. Thus the spectra of biliverdin and its ester are the same (Gray et al, J. Chem. Soc. 2276 (1961); Kuenzle et al. Biochem. J. 130:1147 (1972); O'Carra, Nature 899 (1962)). […] The kinetic trace recorded upon fast mixing of the 30 μM BVDME^3− with 75 μM or 150 μM MnCl2, fits to a single-exponential equation with a zero intercept. […]

[7] = SOD activity, xanthine oxidase/cytochrome c method; type: biochemical; settings: for SOD-like activity (in words): 0.05 M phosphate buffer, pH 7.8, 0.1 mM EDTA
Procedure: FIG. 12. […] The v0 is the rate of reduction of 10 μM cytochrome c by O2. The vi is the rate of reduction of cytochome c inhibited by the porphyrin catalyst in the presence of 0.1 mM EDTA in 0.05 M tris buffer at pH 7.8. 40 μM xanthine. ˜2 nM xanthine oxidase at 25° C. The total volume of the assay solution is 3 mL.
SOD Activity. Catalysis of the dismutating of O2 in vitro was followed by the xanthine oxidase/cytochrome c method (McCord et al, J. Biol. Chem. 244:6049 (1969)).
Dismutation of superoxide anion, O2^−. Assays were conducted in 0.05 M aqueous phosphate buffer, pH 7.8, 0.1 mM EDTA, ±15 μg/mL of catalase, ±albumin. Rate constants for the reaction with O2^−were based upon the competition of the compounds with cytochrome c.
(§1) Two metallotetrapyrroles were tested for antioxidant activity, in vitro. In particular, the compounds were assayed for their ability to dismutate superoxide in the indirect method that utilizes xanthine and xanthine oxidase to generate superoxide and cytochrome c reduction as indicator of superoxide flux. […] The compounds were also assayed for their ability to prevent lipid peroxidation of rat brain homogenates by iron and ascorbate. The mixture of iron and ascorbate generates reactive oxygen species that oxidize biological lipids and these oxidized lipids can be detected as species that react with thiobarbituric acid (TBARS).
a) SOD activity determined using a xanthine oxidase/cytochrome c assay

[8] = Degradation by H2O2 followed by uv/vis spectroscopy; type: physicochemical; settings: pH 7.8; for fraction degraded by H2O2: 4.4 h, 60 μM
From the text: Uv/vis Spectroscopy. […] Also the effects of EDTA, H2O2, and the methanol/water ratio on the stability of the manganese(III) complex were examined. […] 79:699 (1960)). When needed the biliverdin and biliverdin dimethylester as well as their reduced forms bilirubin and bilirubin dimethylester were studied. At μM concentrations, manganese(III) and iron(III) porphyrins are degraded by H2O2 in aqueous solution. pH 7.8 (Batinic-Haberle et al, Inorg. Chem. 38:4011 (1999), Everett et al, J. Trans. Faraday Soc. 49:410 (1953)). […] The reaction was followed in 90/10, v/v methanouaqueous solution at pH^* 7.9. […] The uv/vis spectroscopy indicated degradation via the reduction of biliverdin to bilirubin followed by loss of metal (Gray et al, J. Chem. Soc. 2276 (1961); Kuenzle et al, Biochem. J. 130:1147 (1972); […], Nature 899 (1962)). The interaction of biliverdin and bilirubin with H2O, was also followed in 0.05 M tris buffer, pH 7.8. As observed for its metal complex, biliverdin undergoes reduction by H2O2 via bilirubin. Under pseudo-first order conditions (6 mM to 60 mM H2O2, 60 μM biliverdin), the second-order rate constant was k=3×10^-3 M^-1 s^-1. Bilirubin is more resistant to H2O2 than biliverdin or its metal complex. The disappearance of bilirubin was followed at 435 nm (Gray et al, J. Chem. Soc. 2268 (1961)). Under conditions given above and at 60 mM H2O2, about 40% of the biliverdin and 14% of bilirubin was degraded within 4.4 hours, and about 14% of the complex was degraded inside 80 min.

[9] = H4BV^+; literature (Gray et al; Kuenzle et al; O'Carra); cited from earlier work
[10] = SOD activity, xanthine oxidase/cytochrome c method; type: biochemical; settings: absence of EDTA
rat brain homogenates = experiment: Lipid peroxidation of rat brain homogenates by iron/ascorbate (TBARS); type: biochemical; settings: concentration that reduced lipid peroxidation by one-half
Procedure: The ability of mimetics to inhibit lipid peroxidation can be assessed as described by Day et al, Free Rad. Biol. Med. 26:730 (1990). Iron and ascorbate can be used to initiate lipid peroxidation in tissue homogenates and the formation of thiobarbituric acid reactive species (T BARS) measured.
as §1, with “(TBARS). Both compounds could inhibit the formation of TBARS and this ability correlated with their superoxide dismutase (SOD) activity (Table 5).” for “(TBARS).”
b) Lipid peroxidation was initiated in rat brain homogenates with iron/ascorbate and the IC50 is the concentration of compound that reduced lipid peroxidation by one-half.

Molecule: C=CC1=C(C)C2=CC3=NC(=Cc4c(CCC(=O)O)c(C)c5[n]4[Mn]([O]C4=NC(=Cc6c(C)c(CCC(=O)O)c7[n]6[Mn]([O]C6=NC(=C5)C(C=C)=C6C)[N]5C(=O)C(C=C)=C(C)C5=CC5=NC(=C7)C(CCC(=O)O)=C5C)C(C=C)=C4C)[N]2C1=O)C(CCC(=O)O)=C3C [(Mn^IIIBV)2, Mn^III Biliverdin]
- stability in water solution [1]: lacks adequate stability in water solution

Molecule: manganese(III) tetrakis(N-methylpyridinium-2-yl)porphyrin [Mn^III/IITM-2-PyP^5−4−]
- kcat, O2^− dismutation ([2]; 25° C.): 6.0 × 10^7a M^−1 s^−1
- SOD specific activity [2]: 8.500^a U/mg
- E1/2, V vs NHE [3]: −0.22 V vs NHE
- E1/2, V vs Ag/AgCl [4]: −0.12 V vs Ag/AgCl

Molecule: C=CC1=C(C)/C(=C/C2=NC(=C\c3[nH]c(/C=C4/NC(=O)C(C)=C4C=C)c(C)c3CCC(=O)OC)/C(CCC(=O)OC)=C2C)NC1=O [BVDME^3−, Biliverdin IX dimethylester, reference compound]
- effect on SOD-deficient E. coli growing under aerobic conditions (in words) [5]: neither beneficial nor toxic
- pH* region in which protonation occurs [6]: below 4

Molecule: C=CC1=C(C)/C(=C/C2=NC(=C\c3[nH]c(/C=C4\NC(=O)C(C)=C4C=C)c(C)c3CCC(=O)O)/C(CCC(=O)O)=C2C)NC1=O [biliverdin, biliverdin IX]
- SOD-like activity (in words) [7]: Neither biliverdin nor bilirubin showed any observable SOD-like activity
- second-order rate constant k of reaction with H2O2 ([8]; 0.05 M tris buffer, 6 mM to 60 mM H2O2, 60 μM): 0.003 M⁻¹ s⁻¹
- fraction degraded by H2O2 [8]: about 40%
- pKa [9]: ~3

Continued, values first:

- SOD specific activity [10]: 700^f U/mg
- kcat, O2^− dismutation ([10]; 25° C.): 6.0 × 10^5f M^−1 s^−1
- SOD-like activity (in words) [7]: observed only in the absence of chelator
- E1/2, V vs Ag/AgCl [4]: −0.23 V vs Ag/AgCl
- E1/2, V vs NHE ([4]; extrapolated/calculated redox potential in aqueous solution): −0.13 V vs NHE
Molecule: [Cl-].[Mn+3].[O-]c1ccccc1C=NCCN=Cc1ccccc1[O-] [Mn^III/IIsalen^−/0, Manganese(III) Salen, reference compound]

- SOD Activity ([7]; xanthine oxidase/cytochrome c assay): 6.2 USOD/mg
- IC50 (rat brain homogenates): 70 µM
Molecule: manganese (III) bilirubin ditaurate [MnBRDT]

- fraction degraded by H2O2 [8]: about 14%
Molecule: C=CC1=C(C)/C(=C/c2[nH]c(Cc3[nH]c(/C=C4\NC(=O)C(C)=C4C=C)c(C)c3CCC(=O)O)c(CCC(=O)O)c2C)NC1=O [bilirubin, bilirubin IX]
